Test results published in patent US20220008402A1, “INCREASED E-CADHERIN EXPRESSION OR ACTIVITY FOR THE TREATMENT OF INFLAMMATORY DISEASES” (The Cleveland Clinic Foundation, priority 2020, published 2022).
Entries after “also recorded” stand apart in the source; their conditions may differ.

Tests used:
Format in all cases: cell-based, human
T84 cell monolayers [1] = assay: Immunofluorescence labeling of adherens and tight junctions (E-cadherin, ZO-1)
Method: (§1) FIG. 5: E-cadherin-enhancing drugs prevent cytokine-induced disruption of epithelial adherens junctions. Confluent T84 cell monolayers were pretreated with either vehicle, or ECU (10 μM) for 24 hours. Afterwards, cells were exposed to a combination of TNFα (10 ng/ml) and IFNγ (50 ng/ml) with and without ECU for 48 h. Cells were fixed and structure of adherens was determined by immunolabeling of E-cadherin. Arrows point on disruption of normal E-cadherin labeling in cytokine-exposed, vehicle-treated cells.
as §1, with “FIG. 6:” for “FIG. 5:”, “epithelial tight” for “epithelial adherens”, “with or” for “with and”, “of tight junctions” for “of adherens”, “by ZO-1 immunolabeling.” for “by immunolabeling of E-cadherin.”, “normal ZO-1” for “normal E-cadherin”
In order to visualize structure of epithelial junctions, cultured colonic epithelial cell monolayers were fixed and permeabilized with 100% methanol at −20° C. Fixed samples were blocked for 60 min in HBSS containing 1% bovine serum albumin, followed by a 60-min incubation with primary antibodies against E-cadherin (BD Bioscience) and ZO-1 (Thermo-Fisher). Samples were then washed and incubated with Alexa-Fluor-488-conjugated donkey anti-rabbit and Alexa-Fluor-555—conjugated donkey anti-mouse secondary antibodies for 60 min, rinsed with blocking buffer, and mounted on slides with ProLong Antifade mounting reagent (Thermo-Fisher). Immunolabeled cell monolayers were imaged using a Leica SP8 confocal microscope (Wentzler, Germany). The Alexa Fluor 488 and 555 signals were acquired sequentially in frame-interlace mode to eliminate cross talk between channels. Images were processed using Adobe Photoshop. The images shown are representative of at least three experiments, with multiple images taken per slide. […]

T84 cell monolayers [2] = assay: Cytokine-induced apoptosis, immunoblotting of PARP, cleaved PARP, cleaved caspase-3; settings: 10 μM pretreatment 24 h, then IFNγ 50 ng/ml alone or with TNFα 10 ng/ml, 48 h
Method: FIG. 7: E-cadherin-enhancing drugs attenuate cytokine-induced cell death. Confluent T84 cell monolayers were pretreated with either vehicle, or ECU (10 μM) for 24 h. Afterwards, cells were exposed to either IFNγ (50 ng/ml) alone, or its combination with TNFα (10 ng/ml) with and without addition of ECU for additional 48h. Cell were lysed and levels of different apoptotic markers were determined by immunoblotting analysis.
(§2) To prepare total cell lysates, epithelial cell monolayers were scraped and homogenized using a Dounce homogenizer in RIPA buffer (20 mM Tris, 50 mM NaCl, 2 mM EDTA, 2 mM EGTA, 1% sodium deoxycholate, 1% Triton X-100 (TX-100), and 0.1% SDS, pH 7.4) containing protease inhibitor cocktail and phosphatase inhibitor cocktails 2 and 3 (Sigma-Aldrich). The obtained total cell lysates were cleared by centrifugation (20 min at 14,000×g), diluted with 2×SDS sample loading buffer and boiled. SDS-polyacrylamide gel electrophoresis was conducted using a standard protocol with equal amounts of total protein (10 or 20 μg) loaded per each lane. The separated proteins were transferred to nitrocellulose membranes and the membranes were blocked with 5% non-fat milk. […]

T84 cell monolayers [3] = assay: Immunoblotting of signaling molecules after multiple wounding; settings: 10 μM pretreatment 24 h; lysates 12 and 24 h post-wounding
Method: Confluent T84 cell monolayers were pretreated with either vehicle, ECU (10 μM), or ML327 (10 μM), for 24 h, and were subjected to multiple wounding. Total cell lysates were collected at 12 and 24 h post-wounding, and the expression of different signaling molecules was determined by immunoblotting. Representative immunoblots (A) and densitometric quantification of protein band intensities from three independent experiments (B) are shown. Data are presented as a mean ±SE (n=3); *p<0.05; **p<0.01.
as §2

[4] = 10 μM pretreatment 24 h, then TNFα 10 ng/ml + IFNγ 50 ng/ml, 48 h

With `O=C(NCCCCc1ccncc1)c1cc(-c2ccco2)on1` [ECU] the “Cytokine-induced adherens junction (AJ) disassembly, E-cadherin immunolabeling” value (T84 cell monolayers [1]; [4]) was “dramatic suppression of cytokine-induced disruption of adherens junctions; also recorded: completely prevented cytokine-induced junctional disassembly”, the “Cytokine-induced tight junction (TJ) disassembly, ZO-1 immunolabeling” value (T84 cell monolayers [1]; [4]) was “inhibition of cytokine-induced tight junction disruption; also recorded: completely prevented cytokine-induced junctional disassembly” and the “Normal AJ and TJ structure” value (T84 cell monolayers [1]; 10 μM, without cytokines) was “little effect”. For the same molecule, the “Cytokine-induced apoptosis (PARP cleavage, caspase-3 activation)” value (T84 cell monolayers [2]) was “prevented cytokine-induced PARP cleavage and caspase-3 activation” and the “Expression of signaling molecules (pro-migratory signaling)” value (T84 cell monolayers [3]) was “activation of pro-migratory signaling events”.
